Data taken from patent US20050256037A1, “Antibacterial amide macrocyles” (Bayer HealthCare AG, priority 2003, published 2005).
Values after ≈ are worked out from the molar mass of the structure shown. Structures can show the parent of a compound that is named as a salt. Where two headings read alike, the source gives them in different places. Marks after values point to notes of the source that are not given here.

How the values were obtained:
Assay type in all cases: cell-based
E. faecium L4001 [1] = experiment: MIC, liquid dilution test in minimal medium (96-well microtitre plate); conditions: Enterococcus faecium
Procedure: (§1) Determination of the Minimum Inhibitory Concentration (MIC)
(§2) The minimum inhibitory concentration (MIC) is the minimum concentration of an antibiotic with which the growth of a test microbe is inhibited over 18-24 h. The inhibitor concentration can in these cases be determined by standard microbiological methods (see, for example, The National Committee for Clinical Laboratory Standards. Methods for dilution antimicrobial susceptibility tests for bacteria that grow aerobically; approved standard-fifth edition. NCCLS document M7-A5 [ISBN 1-56238-394-9]. NCCLS, 940 West Valley Road, Suite 1400, Wayne, Pa. 19087-1898 USA, 2000). The MIC of the compounds of the invention is determined in the liquid dilution test on the 96-well microtitre plate scale. The bacterial microbes are cultivated in a minimal medium (18.5 mM Na2HPO4, 5.7 mM KH2PO4, 9.3 mM NH4Cl, 2.8 mM MgSO4, 17.1 mM NaCl, 0.033 μg/ml thiamine hydrochloride, 1.2 μg/ml nicotinic acid, 0.003 μg/ml biotin, 1% glucose, 25 μg/ml of each proteinogenic amino acid with the exception of phenylalanine; [H.-P. Kroll; unpublished]) with addition of 0.4% BH broth (test medium). In the case of Enterococcus faecium L4001, heat-inactivated fetal calf serum (FCS; GibcoBRL, Germany) is added to the test medium in a final concentration of 10%. Overnight cultures of the test microbes are diluted to an OD578 of 0.001 (to 0.01 in the case of enterococci) in fresh test medium, and incubated 1:1 with dilutions of the test substances (1:2 dilution steps) in test medium (200 μl final volume). The cultures are incubated at 37° C. for 18-24 hours; enterococci in the presence of 5% CO2.
(§3) The lowest substance concentration in each case at which bacterial growth was no longer visible is defined as the MIC. […] The compounds show a graded antibacterial effect against most of the test microbes.

S. aureus E33 = experiment: as above; conditions: Staphylococcus aureus
Procedure: as §1, §2, §3

S. aureus T17 [2] = experiment: as above; conditions: Staphylococcus aureus, T17, read-out: MIC S. aureus T17
Procedure: as §1, §2, §3
The S. aureus strain T17 is isolated in vivo. CFW1 mice are infected intraperitoneally with 4×10^7 S. aureus 133 cells per mouse. 0.5 h after the infection, the animals are treated intravenously with 50 mg/kg biphenomycin B. The kidneys are removed from the surviving animals on day 3 after the infection. After homogenization of the organs, the homogenates are plated out as described for RN4220Bi^R on antibiotic-free and antibiotic-containing agar plates and incubated at 37° C. overnight. […] About 20 of these colonies are tested for the biphenomycin B MIC, and a colony with an MIC of >50 μM is selected for further cultivation, and the strain is referred to a T17.

S. aureus 133 = experiment: Rate of spontaneous resistance
Procedure: (§4) Determination of the Rates of Spontaneous Resistance to S. aureus
(§5) The spontaneous resistance rates for the compounds of the invention are determined as follows: the bacterial microbes are cultivated in 30 ml of a minimal medium (18.5 mM Na2HPO4, 5.7 mM KH2PO4, 9.3 mM NH4Cl, 2.8 mM MgSO4, 17.1 mM NaCl, 0.033 μg/ml thiamine hydrochloride, 1.2 μg/ml nicotinic acid, 0.003 μg/ml biotin, 1% glucose, 25 μg/ml of each proteinogenic amino acid with the addition of 0.4% BH broth) at 37° C. overnight, centrifuged at 6000×g for 10 min and resuspended in 2 ml of phosphate-buffered physiological NaCl solution (about 2×10^9 microbes/ml). […] The resulting colonies (cfu) are counted.

S. aureus RN4220Bi^R = experiment: Rate of spontaneous resistance
Procedure: as §4, §5

S. aureus RN4220 = experiment: Rate of spontaneous resistance
Procedure: as §4, §5

S. aureus T17 [3] = experiment: Rate of spontaneous resistance; conditions: 10 × MIC
Procedure: as §4, §5

S. pneumoniae G9a = experiment: Rate of spontaneous resistance; conditions: 5 × MIC; * = colonies with increased MIC (4-8-fold) were isolated
E. faecalis ICB 27159 = experiment: Rate of spontaneous resistance; conditions: * = colonies with increased MIC (4-8-fold) were isolated
E. faecium L4001 [4] = experiment: Rate of spontaneous resistance
[5] = L4001, read-out: MIC E. faecium L4001
[6] = E33, read-out: MIC S. aureus E33

Row | SMILES | MIC (E. faecium L4001 [1]; [5]) [µM] | MIC (S. aureus E33; [6]) [µM] | MIC (S. aureus T17 [2]) [µM] | Rate of spontaneous resistance S. aureus 133 (S. aureus 133; 10 × MIC) | Rate of spontaneous resistance S. aureus RN4220Bi^R (S. aureus RN4220Bi^R; 10 × MIC) | Rate of spontaneous resistance S. aureus RN4220 (S. aureus RN4220; 10 × MIC) | Rate of spontaneous resistance S. aureus T17 (S. aureus T17 [3]) | Rate of spontaneous resistance S. aureus 133 (S. aureus 133) | Rate of spontaneous resistance S. aureus RN4220Bi^R (S. aureus RN4220Bi^R) | Rate of spontaneous resistance S. aureus RN4220 (S. aureus RN4220) | Rate of spontaneous resistance S. pneumoniae G9a (S. pneumoniae G9a) | Rate of spontaneous resistance E. faecalis ICB 27159 (E. faecalis ICB 27159; 5 × MIC) | Rate of spontaneous resistance E. faecalis ICB 27159 (E. faecalis ICB 27159; 10 × MIC) | Rate of spontaneous resistance E. faecium L4001 (E. faecium L4001 [4]; 5 × MIC) | Rate of spontaneous resistance E. faecium L4001 (E. faecium L4001 [4]; 10 × MIC) | MIC (E. faecium L4001 [1]; L4001, Table A, liquid dilution, 10% FCS, 5% CO2, read-out: MIC E. faecium L4001) [µM] | MIC (S. aureus E33; E33, Table A, liquid dilution, 18-24 h, 37° C., read-out: MIC S. aureus E33) [µM]
1 | CN1C(=O)[C@H](C[C@@H](O)CN)NC(=O)[C@@H](N)Cc2cc(ccc2O)-c2ccc(O)c(c2)C[C@H]1C(=O)NCCN [Example 1, (8S,11S,14S)-14-amino-N-(2-aminoethyl)-11-[(2R)-3-amino-2-hydroxypropyl]-5,17-dihydroxy-9-methyl-10,13-dioxo-9,12-diazatricyclo[14.3.1.1.^2,6]henicosa-1(20),2(21),3,5,16,18-hexaene-8-carboxamide, trihydrochloride] | 12.5 | 3.1 | 3.1 | <4 × 10^−8 | <6 × 10^−8 | <6 × 10^−8 | <4 × 10^−8 |  |  |  |  |  |  |  |  |  | 
2 | NCCC[C@@H]1NC(=O)[C@@H](N)Cc2cc(ccc2O)-c2ccc(O)c(c2)C[C@@H](C(=O)NCCN)NC1=O [Example 6, (8S,11S,14S)-14-amino-N-(2-aminoethyl)-11-(3-aminopropyl)-5,17-dihydroxy-10,1 3-dioxo-9,12-diazatricyclo[14.3.1.1^2,6]henicosa-1(20),2(21),3,5,16,18-hexaene-8-carboxamide] | > 50 | 3.1 (≈ 1.55 µg/mL) | 3.1 (≈ 1.55 µg/mL) | <8 × 10^−9 | <4 × 10^−9 | <6 × 10^−9 |  | <8 × 10^−9* | <8 × 10^−9* | <6 × 10^−9* | <4 × 10^−8* | <4 × 10^−9* | <4 × 10^−10* | 4 × 10^−8 | <4 × 10^−9 |  | 
3 | NC[C@H](O)C[C@@H]1NC(=O)[C@@H](N)Cc2cc(ccc2O)-c2ccc(O)c(c2)C[C@@H](C(=O)O)NC1=O [Example 20A, 14(S)-Amino-1(S)-(3-amino-2(R)-hydroxypropyl)-5,17-dihydroxy-10,13-dioxo-9,12-diazatricyclo[14.3.1.1^2,6]henicosa-1(19),2,4,6(21),16(20),17-hexaene-8(S)-carboxylic acid dihydrochloride, reference compound] |  |  | > 25 | <1.7 × 10^−6 |  |  |  |  |  |  |  |  | 4.1 × 10^−6 |  |  | > 25 | 0.1
